Values quoted from earlier work as cited in paper PMC5889410, “Design and Biological Evaluation of Antifouling Dihydrostilbene Oxime Hybrids” (Marine Biotechnology (New York, N.y.), 2018).
In brackets after ≈: the same amount, converted by molar mass.

Assays:
Roseobacter litoralis = conditions: ref Moodie et al. ([2017b]); cited from earlier work
Halomonas aquamarina [1] = conditions: ref Moodie et al. ([2017b]); cited from earlier work
Vibrio proteolyticus [2] = conditions: ref Moodie et al. ([2017b]); cited from earlier work
Cylindrotheca closterium [3] = conditions: ref Moodie et al. ([2017b]); cited from earlier work
Vibrio proteolyticus [4] = conditions: ref Moodie et al. ([2017b]); cited from earlier work; remark: listed apart in the source
[5] = test system: Pseudoalteromonas elyakovii; conditions: ref Moodie et al. ([2017b]); cited from earlier work
Halamphora coffeaeformis [6] = conditions: ref Moodie et al. ([2017b]); cited from earlier work
marine bacteria = conditions: panel of marine bacteria; ref Moodie et al. [2017b]; cited from earlier work
Vibrio aestuarianus [7] = conditions: ref Moodie et al. ([2017b]); cited from earlier work
Vibrio harveyi [8] = conditions: ref Moodie et al. ([2017b]); cited from earlier work
Shewanella putrefaciens = conditions: ref Moodie et al. ([2017b]); cited from earlier work
Ciona savignyi = test system: Ciona savignyi; design: method as in Moodie et al. [2017b]; conditions: ref Moodie et al. [2017b], cited from earlier work
[9] = test system: Pleurochrysis roscoffensis; conditions: ref Moodie et al. ([2017b]); cited from earlier work
Porphyridium purpureum [10] = conditions: ref Moodie et al. ([2017b]); cited from earlier work
[11] = test system: Pleurochrysis roscoffensis; conditions: ref Moodie et al. ([2017b]); cited from earlier work; remark: listed apart in the source
Vibrio carchariae [12] = conditions: ref Moodie et al. ([2017b]); cited from earlier work
Vibrio natriegens = conditions: ref Moodie et al. ([2017b]); cited from earlier work
Halomonas aquamarina [13] = conditions: ref Moodie et al. ([2017b]); cited from earlier work; remark: listed apart in the source
Porphyridium purpureum [14] = conditions: ref Moodie et al. ([2017b]); cited from earlier work; remark: listed apart in the source
Cylindrotheca closterium [15] = conditions: ref Moodie et al. ([2017b]); cited from earlier work; remark: listed apart in the source
Vibrio carchariae [16] = conditions: ref Moodie et al. ([2017b]); cited from earlier work; remark: listed apart in the source
Vibrio aestuarianus [17] = conditions: ref Moodie et al. ([2017b]); cited from earlier work; remark: listed apart in the source
Vibrio harveyi [18] = conditions: ref Moodie et al. ([2017b]); cited from earlier work; remark: listed apart in the source
[19] = test system: Balanus improvisus cyprid larvae; conditions: cited from earlier work
Halamphora coffeaeformis [20] = conditions: ref Moodie et al. ([2017b]); cited from earlier work; remark: listed apart in the source

COc1ccc(CCc2ccccc2)cc1OC [Compound 2]
MIC against the growth of marine bacteria, R.l. (Roseobacter litoralis): 10 µg/mL
MIC against the adhesion of marine bacteria, H.a. (Halomonas aquamarina [1]): – (Not active at > 10 μg/mL)
MIC against the growth of marine bacteria, V.p. (Vibrio proteolyticus [2]): – (Not active at > 10 μg/mL)
MIC against the growth (G) of microalgae, C. closterium (Cylindrotheca closterium [3]): 0.01 µg/mL
MIC against the adhesion of marine bacteria, V.p. (Vibrio proteolyticus [4]): – (Not active at > 10 μg/mL)
MIC against the growth of marine bacteria, P.e. [5]: 10 µg/mL
MIC against the adhesion (A) of microalgae, H. coffeaformis (Halamphora coffeaeformis [6]): 1 µg/mL
Activity against bacterial adhesion (marine bacteria): inactive
MIC against the growth of marine bacteria, V.a. (Vibrio aestuarianus [7]): 10 µg/mL
MIC against the growth of marine bacteria, V.h. (Vibrio harveyi [8]): – (Not active at > 10 μg/mL)
MIC against the growth of marine bacteria, S.p. (Shewanella putrefaciens): 0.1 µg/mL
inhibition of settlement, in words (Ciona savignyi; even after 5 days): effectively inhibited
IC50 (settlement inhibition) (Ciona savignyi): 1.1 µg/mL (≈ 4.54 µM)
toxicity, in words (Ciona savignyi): low toxicity
MIC against the adhesion (A) of microalgae, P. roscoffensis [9]: 1 µg/mL
MIC against the adhesion (A) of microalgae, P. purpureum (Porphyridium purpureum [10]): 10 µg/mL
MIC against the growth (G) of microalgae, P. roscoffensis [11]: 0.01 µg/mL
MIC against the adhesion of marine bacteria, V.c. (Vibrio carchariae [12]): – (Not active at > 10 μg/mL)
MIC against the growth of marine bacteria, V.n. (Vibrio natriegens): – (Not active at > 10 μg/mL)
MIC against the growth of marine bacteria, H.a. (Halomonas aquamarina [13]): 0.01 µg/mL
MIC against the growth (G) of microalgae, P. purpureum (Porphyridium purpureum [14]): 1 µg/mL
MIC against the adhesion (A) of microalgae, C. closterium (Cylindrotheca closterium [15]): 0.1 µg/mL
MIC against the growth of marine bacteria, V.c. (Vibrio carchariae [16]): – (Not active at > 10 μg/mL)
MIC against the adhesion of marine bacteria, V.a. (Vibrio aestuarianus [17]): – (Not active at > 10 μg/mL)
MIC against the adhesion of marine bacteria, V.h. (Vibrio harveyi [18]): – (Not active at > 10 μg/mL)
IC50 (cyprid settlement inhibition) ([19]; B. improvisus, ref Moodie et al. ([2017b])): 0.75 µg/mL (≈ 3.1 µM)
Toxicity (%) (dead cyprids) ([19]; B. improvisus, reported at 5 μg/mL, ref Moodie et al. ([2017b])): 5.3%
toxicity, in words ([19]; Balanus improvisus, ref Moodie et al. [2017b]): low toxicity
MIC against the growth (G) of microalgae, H. coffeaformis (Halamphora coffeaeformis [20]): 0.01 µg/mL
